Measurements published in PubChem BioAssay (NCI).
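Dose response: 5 concentrations. Exposure: 48 h. Format: 96-well plates. Endpoint: linear interpolation; highest concentration if not reached. TGI is the concentration that stops growth completely.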

System: SN12C renal
Experiment: inhibition of tumour cell growth, NCI panel, 48 h

| Structure (SMILES) | TGI |
| --- | --- |
| CNc1nncc2[nH]cnc12 | > 100 µM |
| COc1ccc(N2C(=O)C3c4[nH]c5cc(C)ccc5c4C4CCC(C(C)(C)C)CC4C3C2=O)cc1 (stereo not given) | > 10 µM |
| CC1(C)C=CC(=O)C(O)C(C)(C)C1=O (stereo not given) | > 100 µM |
| CNc1nc(N)nc(Nc2ccc(I)cc2)c1N=O | > 100 µM |
| O=C1/C(=C/c2ccc(Cl)cc2)CCCc2ccccc21 | 33.3 µM |
| Cc1cc(C[C@H]2O[C@@H]3OC(C)(C)O[C@@H]3[C@H]3OC(C)(C)O[C@H]32)c2ccccc2n1 | > 100 µM |
| Nc1ncnc2c1ccn2C/C=C/CO | > 100 µM |
| CC(C)(C)c1ccc2c(c1)C#Cc1cc3c(cc1OCCCO2)C#Cc1cc(C(C)(C)C)ccc1OCCCO3 | > 100 µM |

System: RXF 393 renal
Experiment: inhibition of tumour cell growth, NCI panel, 48 h

| Structure (SMILES) | TGI |
| --- | --- |
| CNc1nncc2[nH]cnc12 | > 100 µM |
| COc1ccc(N2C(=O)C3c4[nH]c5cc(C)ccc5c4C4CCC(C(C)(C)C)CC4C3C2=O)cc1 (stereo not given) | > 10 µM |
| CC1(C)C=CC(=O)C(O)C(C)(C)C1=O (stereo not given) | > 100 µM |
| CNc1nc(N)nc(Nc2ccc(I)cc2)c1N=O | > 100 µM |
| Cc1cc(C[C@H]2O[C@@H]3OC(C)(C)O[C@@H]3[C@H]3OC(C)(C)O[C@H]32)c2ccccc2n1 | > 100 µM |
| Nc1ncnc2c1ccn2C/C=C/CO | > 100 µM |
| CC(C)(C)c1ccc2c(c1)C#Cc1cc3c(cc1OCCCO2)C#Cc1cc(C(C)(C)C)ccc1OCCCO3 | > 100 µM |

System: 786-0 renal
Experiment: inhibition of tumour cell growth, NCI panel, 48 h

| Structure (SMILES) | TGI |
| --- | --- |
| CNc1nncc2[nH]cnc12 | > 100 µM |
| CC1(C)C=CC(=O)C(O)C(C)(C)C1=O (stereo not given) | > 100 µM |
| CNc1nc(N)nc(Nc2ccc(I)cc2)c1N=O | > 100 µM |
| O=C1/C(=C/c2ccc(Cl)cc2)CCCc2ccccc21 | 32.4 µM |
| Cc1cc(C[C@H]2O[C@@H]3OC(C)(C)O[C@@H]3[C@H]3OC(C)(C)O[C@H]32)c2ccccc2n1 | > 100 µM |
| Nc1ncnc2c1ccn2C/C=C/CO | > 100 µM |
| CC(C)(C)c1ccc2c(c1)C#Cc1cc3c(cc1OCCCO2)C#Cc1cc(C(C)(C)C)ccc1OCCCO3 | > 100 µM |

System: TK-10 renal
Experiment: inhibition of tumour cell growth, NCI panel, 48 h

| Structure (SMILES) | TGI |
| --- | --- |
| CNc1nncc2[nH]cnc12 | > 100 µM |
| COc1ccc(N2C(=O)C3c4[nH]c5cc(C)ccc5c4C4CCC(C(C)(C)C)CC4C3C2=O)cc1 (stereo not given) | > 10 µM |
| CC1(C)C=CC(=O)C(O)C(C)(C)C1=O (stereo not given) | > 100 µM |
| CNc1nc(N)nc(Nc2ccc(I)cc2)c1N=O | > 100 µM |
| O=C1/C(=C/c2ccc(Cl)cc2)CCCc2ccccc21 | 58.7 µM |
| Cc1cc(C[C@H]2O[C@@H]3OC(C)(C)O[C@@H]3[C@H]3OC(C)(C)O[C@H]32)c2ccccc2n1 | > 100 µM |
| Nc1ncnc2c1ccn2C/C=C/CO | > 100 µM |
| CC(C)(C)c1ccc2c(c1)C#Cc1cc3c(cc1OCCCO2)C#Cc1cc(C(C)(C)C)ccc1OCCCO3 | > 100 µM |

System: SF-268 CNS
Experiment: inhibition of tumour cell growth, NCI panel, 48 h

| Structure (SMILES) | TGI |
| --- | --- |
| CNc1nncc2[nH]cnc12 | > 100 µM |
| COc1ccc(N2C(=O)C3c4[nH]c5cc(C)ccc5c4C4CCC(C(C)(C)C)CC4C3C2=O)cc1 (stereo not given) | > 10 µM |
| CC1(C)C=CC(=O)C(O)C(C)(C)C1=O (stereo not given) | > 100 µM |
| CNc1nc(N)nc(Nc2ccc(I)cc2)c1N=O | > 100 µM |
| O=C1/C(=C/c2ccc(Cl)cc2)CCCc2ccccc21 | 30.9 µM |
| Cc1cc(C[C@H]2O[C@@H]3OC(C)(C)O[C@@H]3[C@H]3OC(C)(C)O[C@H]32)c2ccccc2n1 | > 100 µM |
| Nc1ncnc2c1ccn2C/C=C/CO | > 100 µM |
| CC(C)(C)c1ccc2c(c1)C#Cc1cc3c(cc1OCCCO2)C#Cc1cc(C(C)(C)C)ccc1OCCCO3 | > 100 µM |

System: OVCAR-4 ovarian
Experiment: inhibition of tumour cell growth, NCI panel, 48 h

| Structure (SMILES) | TGI |
| --- | --- |
| COc1ccc(N2C(=O)C3c4[nH]c5cc(C)ccc5c4C4CCC(C(C)(C)C)CC4C3C2=O)cc1 (stereo not given) | > 10 µM |
| CC1(C)C=CC(=O)C(O)C(C)(C)C1=O (stereo not given) | > 100 µM |
| O=C1/C(=C/c2ccc(Cl)cc2)CCCc2ccccc21 | 29.5 µM |
| Cc1cc(C[C@H]2O[C@@H]3OC(C)(C)O[C@@H]3[C@H]3OC(C)(C)O[C@H]32)c2ccccc2n1 | > 100 µM |
| Nc1ncnc2c1ccn2C/C=C/CO | > 100 µM |
| CC(C)(C)c1ccc2c(c1)C#Cc1cc3c(cc1OCCCO2)C#Cc1cc(C(C)(C)C)ccc1OCCCO3 | > 100 µM |

System: HCT-116 colon
Experiment: inhibition of tumour cell growth, NCI panel, 48 h

| Structure (SMILES) | TGI |
| --- | --- |
| CNc1nncc2[nH]cnc12 | > 100 µM |
| COc1ccc(N2C(=O)C3c4[nH]c5cc(C)ccc5c4C4CCC(C(C)(C)C)CC4C3C2=O)cc1 (stereo not given) | > 10 µM |
| CC1(C)C=CC(=O)C(O)C(C)(C)C1=O (stereo not given) | > 100 µM |
| CNc1nc(N)nc(Nc2ccc(I)cc2)c1N=O | > 100 µM |
| O=C1/C(=C/c2ccc(Cl)cc2)CCCc2ccccc21 | 26.5 µM |
| Cc1cc(C[C@H]2O[C@@H]3OC(C)(C)O[C@@H]3[C@H]3OC(C)(C)O[C@H]32)c2ccccc2n1 | > 100 µM |
| Nc1ncnc2c1ccn2C/C=C/CO | > 100 µM |
| CC(C)(C)c1ccc2c(c1)C#Cc1cc3c(cc1OCCCO2)C#Cc1cc(C(C)(C)C)ccc1OCCCO3 | > 100 µM |

System: SNB-75 CNS
Experiment: inhibition of tumour cell growth, NCI panel, 48 h

| Structure (SMILES) | TGI |
| --- | --- |
| CNc1nncc2[nH]cnc12 | > 100 µM |
| COc1ccc(N2C(=O)C3c4[nH]c5cc(C)ccc5c4C4CCC(C(C)(C)C)CC4C3C2=O)cc1 (stereo not given) | 6.07 µM |
| CC1(C)C=CC(=O)C(O)C(C)(C)C1=O (stereo not given) | > 100 µM |
| CNc1nc(N)nc(Nc2ccc(I)cc2)c1N=O | > 100 µM |
| O=C1/C(=C/c2ccc(Cl)cc2)CCCc2ccccc21 | > 100 µM |
| Cc1cc(C[C@H]2O[C@@H]3OC(C)(C)O[C@@H]3[C@H]3OC(C)(C)O[C@H]32)c2ccccc2n1 | > 100 µM |
| Nc1ncnc2c1ccn2C/C=C/CO | > 100 µM |

System: HOP-62 NSCLC
Experiment: inhibition of tumour cell growth, NCI panel, 48 h

| Structure (SMILES) | TGI |
| --- | --- |
| COc1ccc(N2C(=O)C3c4[nH]c5cc(C)ccc5c4C4CCC(C(C)(C)C)CC4C3C2=O)cc1 (stereo not given) | > 10 µM |
| CC1(C)C=CC(=O)C(O)C(C)(C)C1=O (stereo not given) | > 100 µM |
| CNc1nc(N)nc(Nc2ccc(I)cc2)c1N=O | > 100 µM |
| O=C1/C(=C/c2ccc(Cl)cc2)CCCc2ccccc21 | 57.7 µM |
| Cc1cc(C[C@H]2O[C@@H]3OC(C)(C)O[C@@H]3[C@H]3OC(C)(C)O[C@H]32)c2ccccc2n1 | > 100 µM |
| Nc1ncnc2c1ccn2C/C=C/CO | > 100 µM |
| CC(C)(C)c1ccc2c(c1)C#Cc1cc3c(cc1OCCCO2)C#Cc1cc(C(C)(C)C)ccc1OCCCO3 | > 100 µM |

System: BT-549 breast
Experiment: inhibition of tumour cell growth, NCI panel, 48 h

| Structure (SMILES) | TGI |
| --- | --- |
| CNc1nncc2[nH]cnc12 | > 100 µM |
| CC1(C)C=CC(=O)C(O)C(C)(C)C1=O (stereo not given) | > 100 µM |
| CNc1nc(N)nc(Nc2ccc(I)cc2)c1N=O | > 100 µM |
| O=C1/C(=C/c2ccc(Cl)cc2)CCCc2ccccc21 | 47.3 µM |
| Nc1ncnc2c1ccn2C/C=C/CO | > 100 µM |
| CC(C)(C)c1ccc2c(c1)C#Cc1cc3c(cc1OCCCO2)C#Cc1cc(C(C)(C)C)ccc1OCCCO3 | 3.39 µM |

System: UACC-62 melanoma
Experiment: inhibition of tumour cell growth, NCI panel, 48 h

| Structure (SMILES) | TGI |
| --- | --- |
| CNc1nncc2[nH]cnc12 | > 100 µM |
| COc1ccc(N2C(=O)C3c4[nH]c5cc(C)ccc5c4C4CCC(C(C)(C)C)CC4C3C2=O)cc1 (stereo not given) | > 10 µM |
| CC1(C)C=CC(=O)C(O)C(C)(C)C1=O (stereo not given) | > 100 µM |
| CNc1nc(N)nc(Nc2ccc(I)cc2)c1N=O | > 100 µM |
| O=C1/C(=C/c2ccc(Cl)cc2)CCCc2ccccc21 | 27.5 µM |
| Cc1cc(C[C@H]2O[C@@H]3OC(C)(C)O[C@@H]3[C@H]3OC(C)(C)O[C@H]32)c2ccccc2n1 | > 100 µM |
| Nc1ncnc2c1ccn2C/C=C/CO | > 100 µM |
| CC(C)(C)c1ccc2c(c1)C#Cc1cc3c(cc1OCCCO2)C#Cc1cc(C(C)(C)C)ccc1OCCCO3 | > 100 µM |

System: OVCAR-3 ovarian
Experiment: inhibition of tumour cell growth, NCI panel, 48 h

| Structure (SMILES) | TGI |
| --- | --- |
| COc1ccc(N2C(=O)C3c4[nH]c5cc(C)ccc5c4C4CCC(C(C)(C)C)CC4C3C2=O)cc1 (stereo not given) | > 10 µM |
| CC1(C)C=CC(=O)C(O)C(C)(C)C1=O (stereo not given) | 79.6 µM |
| CNc1nc(N)nc(Nc2ccc(I)cc2)c1N=O | > 100 µM |
| O=C1/C(=C/c2ccc(Cl)cc2)CCCc2ccccc21 | 39.4 µM |
| Nc1ncnc2c1ccn2C/C=C/CO | > 100 µM |
| CC(C)(C)c1ccc2c(c1)C#Cc1cc3c(cc1OCCCO2)C#Cc1cc(C(C)(C)C)ccc1OCCCO3 | > 100 µM |

System: SK-OV-3 ovarian
Experiment: inhibition of tumour cell growth, NCI panel, 48 h

| Structure (SMILES) | TGI |
| --- | --- |
| CNc1nncc2[nH]cnc12 | > 100 µM |
| COc1ccc(N2C(=O)C3c4[nH]c5cc(C)ccc5c4C4CCC(C(C)(C)C)CC4C3C2=O)cc1 (stereo not given) | > 10 µM |
| CC1(C)C=CC(=O)C(O)C(C)(C)C1=O (stereo not given) | > 100 µM |
| O=C1/C(=C/c2ccc(Cl)cc2)CCCc2ccccc21 | 96.5 µM |
| Cc1cc(C[C@H]2O[C@@H]3OC(C)(C)O[C@@H]3[C@H]3OC(C)(C)O[C@H]32)c2ccccc2n1 | > 100 µM |
| Nc1ncnc2c1ccn2C/C=C/CO | > 100 µM |
| CC(C)(C)c1ccc2c(c1)C#Cc1cc3c(cc1OCCCO2)C#Cc1cc(C(C)(C)C)ccc1OCCCO3 | > 100 µM |

System: NCI-H460 lung
Experiment: inhibition of tumour cell growth, NCI panel, 48 h

| Structure (SMILES) | TGI |
| --- | --- |
| COc1ccc(N2C(=O)C3c4[nH]c5cc(C)ccc5c4C4CCC(C(C)(C)C)CC4C3C2=O)cc1 (stereo not given) | > 10 µM |
| CC1(C)C=CC(=O)C(O)C(C)(C)C1=O (stereo not given) | > 100 µM |
| CNc1nc(N)nc(Nc2ccc(I)cc2)c1N=O | > 100 µM |
| O=C1/C(=C/c2ccc(Cl)cc2)CCCc2ccccc21 | 32.2 µM |
| Cc1cc(C[C@H]2O[C@@H]3OC(C)(C)O[C@@H]3[C@H]3OC(C)(C)O[C@H]32)c2ccccc2n1 | > 100 µM |
| Nc1ncnc2c1ccn2C/C=C/CO | > 100 µM |
| CC(C)(C)c1ccc2c(c1)C#Cc1cc3c(cc1OCCCO2)C#Cc1cc(C(C)(C)C)ccc1OCCCO3 | > 100 µM |

System: PC-3 prostate
Experiment: inhibition of tumour cell growth, NCI panel, 48 h

| Structure (SMILES) | TGI |
| --- | --- |
| COc1ccc(N2C(=O)C3c4[nH]c5cc(C)ccc5c4C4CCC(C(C)(C)C)CC4C3C2=O)cc1 (stereo not given) | > 10 µM |
| CC1(C)C=CC(=O)C(O)C(C)(C)C1=O (stereo not given) | > 100 µM |
| CNc1nc(N)nc(Nc2ccc(I)cc2)c1N=O | > 100 µM |
| O=C1/C(=C/c2ccc(Cl)cc2)CCCc2ccccc21 | 53.1 µM |
| Cc1cc(C[C@H]2O[C@@H]3OC(C)(C)O[C@@H]3[C@H]3OC(C)(C)O[C@H]32)c2ccccc2n1 | > 100 µM |
